Values quoted from earlier work, collected in patent publication US5143902A, “Glucagon analogs with ASP^9 replacements or deletions” (The Rockefeller University, priority 1991, dated 1992).

Tests used:
Details in all cases: background
glucagon receptor = system: glucagon receptor
adenylate cyclase = system: adenylate cyclase
[1] = system: another binding system in the hepatocyte membrane

**Q.** With “Nα- trinitrophenyl [12-homoarginine] glucagon” as the substance, how does the “binding to the glucagon receptor” value (glucagon receptor) read?
**A.** does bind to the glucagon receptor

**Q.** What about the “activation of adenylate cyclase” value (adenylate cyclase) of the same substance?
**A.** without significant activation of adenylate cyclase

**Q.** What about the “activation of another binding system producing inositol trisphosphate and calcium ions” value [1] of the same substance?
**A.** activates another binding system in the hepatocyte membrane leading to the production of inositol trisphosphate and calcium ions
